PubChem BioAssay (NCI)
Values joined by “and” are separate entries in the source; they are usually repeats but may differ in a detail not shown here. Identical values can stand only once.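 A five-concentration, 48-hour dose response in 96-well plates underlies each endpoint, interpolated linearly between surrounding concentrations. GI50 is the concentration that inhibits growth by half. At the TGI there is no net growth.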

The compounds below were run on CAKI-1 renal (assay: DTP human tumour cell line panel, 48 h).
For `CCc1nc2ccccc2c(=O)n1/N=C(\N=Nc1ccc(Cl)cc1)c1ccccc1Cl`, the TGI was > 100 µM.
In the case of `CCOCNC(=O)N(COCC)COCC`, the TGI is reported as > 100 µM.
For `COC(=O)CSc1n[nH]c(-c2ccc(O)c([N+](=O)[O-])c2)n1`, the TGI was > 100 µM.
With `NC1C2(CCCCCC2)NC(=O)C12CCCCCC2` (stereo not drawn) the TGI was > 100 µM.
With `COC(=O)c1cc2c(c(C(=O)OC)c1O)C(=O)C=CC2=O` the GI50 was > 100 µM and the TGI was > 100 µM.

These compounds were tested on SK-OV-3 ovarian (assay: DTP human tumour cell line panel, 48 h).
With `CCc1nc2ccccc2c(=O)n1/N=C(\N=Nc1ccc(Cl)cc1)c1ccccc1Cl` the TGI was > 100 µM.
For `NCC(=O)NC(CCCC(NC(=O)CN)P(=O)(O)O)P(=O)(O)O` (stereo not drawn), the TGI was > 100 µM.
For `CCOCNC(=O)N(COCC)COCC`, the TGI was > 100 µM.
For `NC1C2(CCCCCC2)NC(=O)C12CCCCCC2` (stereo not drawn), the TGI was > 100 µM.
In the case of `COC(=O)c1cc2c(c(C(=O)OC)c1O)C(=O)C=CC2=O`, the GI50 is reported as > 9.1 µM and the TGI is reported as > 100 µM.

Each compound was assayed on LXFL 529 NSCLC (assay: DTP human tumour cell line panel, 48 h).
`CCc1nc2ccccc2c(=O)n1/N=C(\N=Nc1ccc(Cl)cc1)c1ccccc1Cl` gave a TGI of 85.3 µM.
With `CCOCNC(=O)N(COCC)COCC` the TGI was > 100 µM.
For `COC(=O)CSc1n[nH]c(-c2ccc(O)c([N+](=O)[O-])c2)n1`, the TGI was > 100 µM.
`NC1C2(CCCCCC2)NC(=O)C12CCCCCC2` (stereo not drawn) was tested, and the TGI was > 100 µM.
With `COC(=O)c1cc2c(c(C(=O)OC)c1O)C(=O)C=CC2=O` the GI50 was 4.16 µM and the TGI was 9.1 µM.

These compounds were tested on NCI-H23 lung (assay: DTP human tumour cell line panel, 48 h).
`CCc1nc2ccccc2c(=O)n1/N=C(\N=Nc1ccc(Cl)cc1)c1ccccc1Cl` was tested, and the TGI was > 100 µM.
For `NCC(=O)NC(CCCC(NC(=O)CN)P(=O)(O)O)P(=O)(O)O` (stereo not drawn), the TGI was > 100 µM.
`COC(=O)CSc1n[nH]c(-c2ccc(O)c([N+](=O)[O-])c2)n1` was tested, and the TGI was > 100 µM.
With `NC1C2(CCCCCC2)NC(=O)C12CCCCCC2` (stereo not drawn) the TGI was > 100 µM.
In the case of `COC(=O)c1cc2c(c(C(=O)OC)c1O)C(=O)C=CC2=O`, the GI50 is reported as > 9.1 µM and the TGI is reported as > 31.6 µM.

What follows are compounds tested on KM12 colon (assay: DTP human tumour cell line panel, 48 h).
Work on `CSc1ccc(/C=C2/C[N+](C)(C)C/C(=C/c3ccc(SC)cc3)C2=O)cc1` yielded a TGI of 15.9 µM.
With `NCC(=O)NC(CCCC(NC(=O)CN)P(=O)(O)O)P(=O)(O)O` (stereo not drawn) the TGI was > 100 µM.
With `CCOCNC(=O)N(COCC)COCC` the TGI was > 100 µM.
`NC1C2(CCCCCC2)NC(=O)C12CCCCCC2` (stereo not drawn) was tested, and the TGI was > 100 µM.
In the case of `COC(=O)c1cc2c(c(C(=O)OC)c1O)C(=O)C=CC2=O`, the GI50 is reported as > 9.1 µM and the TGI is reported as > 58.3 µM.

Each compound was assayed on HCT-116 colon (assay: DTP human tumour cell line panel, 48 h).
`CCc1nc2ccccc2c(=O)n1/N=C(\N=Nc1ccc(Cl)cc1)c1ccccc1Cl` was tested, and the TGI was > 100 µM.
`NCC(=O)NC(CCCC(NC(=O)CN)P(=O)(O)O)P(=O)(O)O` (stereo not drawn) was tested, and the TGI was > 100 µM.
For `CCOCNC(=O)N(COCC)COCC`, the TGI was > 100 µM.
`COC(=O)CSc1n[nH]c(-c2ccc(O)c([N+](=O)[O-])c2)n1` was tested, and the TGI was > 100 µM.
In the case of `NC1C2(CCCCCC2)NC(=O)C12CCCCCC2` (stereo not drawn), the TGI is reported as > 100 µM.
In the case of `COC(=O)c1cc2c(c(C(=O)OC)c1O)C(=O)C=CC2=O`, the GI50 is reported as 3.49 µM and the TGI is reported as > 9.1 µM and 16.9 µM.

Each compound was assayed on A498 renal (assay: DTP human tumour cell line panel, 48 h).
`CCc1nc2ccccc2c(=O)n1/N=C(\N=Nc1ccc(Cl)cc1)c1ccccc1Cl` was tested, and the TGI was > 100 µM.
For `NCC(=O)NC(CCCC(NC(=O)CN)P(=O)(O)O)P(=O)(O)O` (stereo not drawn), the TGI was > 100 µM.
With `CCOCNC(=O)N(COCC)COCC` the TGI was > 100 µM.
`COC(=O)CSc1n[nH]c(-c2ccc(O)c([N+](=O)[O-])c2)n1` was tested, and the TGI was > 100 µM.
With `NC1C2(CCCCCC2)NC(=O)C12CCCCCC2` (stereo not drawn) the TGI was > 100 µM.
`COC(=O)c1cc2c(c(C(=O)OC)c1O)C(=O)C=CC2=O` was tested, and the GI50 was > 9.1 µM and the TGI was > 55.8 µM.

The compounds below were run on K-562 leukemia (assay: DTP human tumour cell line panel, 48 h).
For `CSc1ccc(/C=C2/C[N+](C)(C)C/C(=C/c3ccc(SC)cc3)C2=O)cc1`, the TGI was > 100 µM.
With `CCOCNC(=O)N(COCC)COCC` the TGI was > 100 µM.
For `COC(=O)CSc1n[nH]c(-c2ccc(O)c([N+](=O)[O-])c2)n1`, the TGI was > 100 µM.
With `NC1C2(CCCCCC2)NC(=O)C12CCCCCC2` (stereo not drawn) the TGI was > 100 µM.
With `COC(=O)c1cc2c(c(C(=O)OC)c1O)C(=O)C=CC2=O` the TGI was > 22.7 µM.

The compounds below were run on NCI-H522 lung (assay: DTP human tumour cell line panel, 48 h).
For `CSc1ccc(/C=C2/C[N+](C)(C)C/C(=C/c3ccc(SC)cc3)C2=O)cc1`, the TGI was 21.3 µM.
`NCC(=O)NC(CCCC(NC(=O)CN)P(=O)(O)O)P(=O)(O)O` (stereo not drawn) was tested, and the TGI was > 100 µM.
For `CCOCNC(=O)N(COCC)COCC`, the TGI was > 100 µM.
With `NC1C2(CCCCCC2)NC(=O)C12CCCCCC2` (stereo not drawn) the TGI was > 100 µM.
`COC(=O)c1cc2c(c(C(=O)OC)c1O)C(=O)C=CC2=O` was tested, and the GI50 was 3.01 µM and the TGI was 9.1 µM and > 26.9 µM.

Each compound was assayed on HT29 colon (assay: DTP human tumour cell line panel, 48 h).
In the case of `CCc1nc2ccccc2c(=O)n1/N=C(\N=Nc1ccc(Cl)cc1)c1ccccc1Cl`, the TGI is reported as > 100 µM.
`NCC(=O)NC(CCCC(NC(=O)CN)P(=O)(O)O)P(=O)(O)O` (stereo not drawn) was tested, and the TGI was > 100 µM.
In the case of `CCOCNC(=O)N(COCC)COCC`, the TGI is reported as > 100 µM.
With `COC(=O)CSc1n[nH]c(-c2ccc(O)c([N+](=O)[O-])c2)n1` the TGI was > 100 µM.
`NC1C2(CCCCCC2)NC(=O)C12CCCCCC2` (stereo not drawn) was tested, and the TGI was > 100 µM.
With `COC(=O)c1cc2c(c(C(=O)OC)c1O)C(=O)C=CC2=O` the GI50 was 18.4 µM and the TGI was > 9.1 µM and 38.5 µM.

These compounds were tested on MOLT-4 leukemia (assay: DTP human tumour cell line panel, 48 h).
In the case of `CCc1nc2ccccc2c(=O)n1/N=C(\N=Nc1ccc(Cl)cc1)c1ccccc1Cl`, the TGI is reported as 96.4 µM.
For `CSc1ccc(/C=C2/C[N+](C)(C)C/C(=C/c3ccc(SC)cc3)C2=O)cc1`, the TGI was 67.4 µM.
For `NCC(=O)NC(CCCC(NC(=O)CN)P(=O)(O)O)P(=O)(O)O` (stereo not drawn), the TGI was > 100 µM.
With `CCOCNC(=O)N(COCC)COCC` the TGI was > 100 µM.
In the case of `COC(=O)CSc1n[nH]c(-c2ccc(O)c([N+](=O)[O-])c2)n1`, the TGI is reported as > 100 µM.
For `NC1C2(CCCCCC2)NC(=O)C12CCCCCC2` (stereo not drawn), the TGI was > 100 µM.
For `COC(=O)c1cc2c(c(C(=O)OC)c1O)C(=O)C=CC2=O`, the TGI was > 21.5 µM.

What follows are compounds tested on HOP-62 NSCLC (assay: DTP human tumour cell line panel, 48 h).
With `CCc1nc2ccccc2c(=O)n1/N=C(\N=Nc1ccc(Cl)cc1)c1ccccc1Cl` the TGI was > 100 µM.
For `NCC(=O)NC(CCCC(NC(=O)CN)P(=O)(O)O)P(=O)(O)O` (stereo not drawn), the TGI was > 100 µM.
`CCOCNC(=O)N(COCC)COCC` was tested, and the TGI was > 100 µM.
`NC1C2(CCCCCC2)NC(=O)C12CCCCCC2` (stereo not drawn) was tested, and the TGI was > 100 µM.
`COC(=O)c1cc2c(c(C(=O)OC)c1O)C(=O)C=CC2=O` was tested, and the GI50 was > 9.1 µM and the TGI was > 93.4 µM.

These compounds were tested on RPMI-8226 leukemia (assay: DTP human tumour cell line panel, 48 h).
Work on `CSc1ccc(/C=C2/C[N+](C)(C)C/C(=C/c3ccc(SC)cc3)C2=O)cc1` yielded a TGI of 9.92 µM.
With `CCOCNC(=O)N(COCC)COCC` the TGI was > 100 µM.
With `COC(=O)CSc1n[nH]c(-c2ccc(O)c([N+](=O)[O-])c2)n1` the TGI was > 100 µM.
With `COC(=O)c1cc2c(c(C(=O)OC)c1O)C(=O)C=CC2=O` the GI50 was 1.79 µM and the TGI was > 9.1 µM and 5.6 µM.

What follows are compounds tested on NCI-H226 lung (assay: DTP human tumour cell line panel, 48 h).
In the case of `CSc1ccc(/C=C2/C[N+](C)(C)C/C(=C/c3ccc(SC)cc3)C2=O)cc1`, the TGI is reported as 72.5 µM.
In the case of `NCC(=O)NC(CCCC(NC(=O)CN)P(=O)(O)O)P(=O)(O)O` (stereo not drawn), the TGI is reported as > 100 µM.
In the case of `CCOCNC(=O)N(COCC)COCC`, the TGI is reported as > 100 µM.
For `COC(=O)CSc1n[nH]c(-c2ccc(O)c([N+](=O)[O-])c2)n1`, the TGI was > 100 µM.
In the case of `COC(=O)c1cc2c(c(C(=O)OC)c1O)C(=O)C=CC2=O`, the GI50 is reported as 18.5 µM and the TGI is reported as > 9.1 µM and 34.7 µM.

The compounds below were run on U251 CNS (assay: DTP human tumour cell line panel, 48 h).
With `CCc1nc2ccccc2c(=O)n1/N=C(\N=Nc1ccc(Cl)cc1)c1ccccc1Cl` the TGI was > 100 µM.
In the case of `CSc1ccc(/C=C2/C[N+](C)(C)C/C(=C/c3ccc(SC)cc3)C2=O)cc1`, the TGI is reported as 7.92 µM.
In the case of `NCC(=O)NC(CCCC(NC(=O)CN)P(=O)(O)O)P(=O)(O)O` (stereo not drawn), the TGI is reported as > 100 µM.
In the case of `COC(=O)CSc1n[nH]c(-c2ccc(O)c([N+](=O)[O-])c2)n1`, the TGI is reported as > 100 µM.
For `NC1C2(CCCCCC2)NC(=O)C12CCCCCC2` (stereo not drawn), the TGI was > 100 µM.
With `COC(=O)c1cc2c(c(C(=O)OC)c1O)C(=O)C=CC2=O` the GI50 was > 9.1 µM and the TGI was > 55.8 µM.
